Legend:
kinome = tested on: kinome; design: method as in PMID 34038857; settings: at 100 nM, against the kinome; cited from earlier work
MerTK = target: T1, MerTK (Homo sapiens, UniProt Q12866); design: method as in PMID 34038857; settings: read-out: Ki against MerTK; cited from earlier work
T1 sequence (Q12866 21-999): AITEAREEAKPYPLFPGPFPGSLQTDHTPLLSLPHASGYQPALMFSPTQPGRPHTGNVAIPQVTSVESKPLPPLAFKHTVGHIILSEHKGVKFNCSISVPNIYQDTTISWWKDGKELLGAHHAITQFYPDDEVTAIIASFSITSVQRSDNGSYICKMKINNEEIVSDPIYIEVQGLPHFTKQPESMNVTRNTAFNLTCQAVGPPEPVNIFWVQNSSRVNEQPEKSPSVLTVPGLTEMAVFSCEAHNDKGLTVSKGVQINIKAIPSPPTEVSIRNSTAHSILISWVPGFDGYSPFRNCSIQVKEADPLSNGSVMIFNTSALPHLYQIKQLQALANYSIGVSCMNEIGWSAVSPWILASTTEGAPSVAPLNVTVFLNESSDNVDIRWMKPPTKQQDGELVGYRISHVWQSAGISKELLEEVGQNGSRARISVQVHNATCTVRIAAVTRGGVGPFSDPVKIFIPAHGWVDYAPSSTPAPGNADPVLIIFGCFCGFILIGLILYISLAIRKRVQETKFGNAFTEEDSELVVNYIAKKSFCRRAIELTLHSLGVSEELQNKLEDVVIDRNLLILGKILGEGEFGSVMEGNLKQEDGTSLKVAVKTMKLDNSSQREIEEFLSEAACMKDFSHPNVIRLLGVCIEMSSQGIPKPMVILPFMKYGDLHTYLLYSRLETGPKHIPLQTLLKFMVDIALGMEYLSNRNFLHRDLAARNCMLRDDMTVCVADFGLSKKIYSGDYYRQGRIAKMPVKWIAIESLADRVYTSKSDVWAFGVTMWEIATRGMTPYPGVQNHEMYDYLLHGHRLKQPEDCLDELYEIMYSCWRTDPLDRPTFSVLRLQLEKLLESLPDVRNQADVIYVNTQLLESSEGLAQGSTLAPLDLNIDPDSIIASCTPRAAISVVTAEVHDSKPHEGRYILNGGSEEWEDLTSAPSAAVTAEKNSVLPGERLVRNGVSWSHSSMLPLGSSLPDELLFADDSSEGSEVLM

[1] = tested on: B16F10 tumor-bearing mice; assay: PET imaging in B16F10 tumor-bearing mice; assay type: in vivo; settings: for uptake in kidney / uptake in liver / uptake in muscle / uptake in tumor: i.v., PET ROI, n = 3
Experimental: Evaluation of the PET agent [^18F]-MerTK-6 was performed on B16F10 tumor-bearing mice. At 30 min post-injection (p.i), the uptake in tumor, liver, kidney, and muscle was 4.65 ± 1.25, 14.79 ± 0.99, 10.42 ± 1.01, and 2.51 ± 0.48%ID/g, respectively. The uptake at 2 h p.i. was 4.79 ± 0.24, 9.72 ± 1.56, 5.34 ± 1.25, and 1.55 ± 0.23%ID/g, respectively. Overall, the tumor uptake was maintained at ~5%ID/g and the tumor to muscle contrast increased to 3.09 at 2 h p.i, compared with 1.86 at 0.5 h p.i.
All animal studies were reviewed and approved by The University of North Carolina at Chapel Hill Institutional Animal Care and Use Committee. The B16F10 tumor cell was obtained from the LCCC tissue culture facility (the University of North Carolina at Chapel Hill, Chapel Hill, NC, USA). The B16F10 tumor-bearing […] mouse model was prepared as described previously. Briefly, B16/F10 cells were subcutaneously injected on the right flank of C57BL/6 female mice (Jackson Laboratory). The tumor volume was measured daily. When the tumor size reached 100 mm^3, the mice were used for PET imaging studies.
B16F10 tumor-bearing mice (n = 3/group) were intravenously injected via the tail vein with tracers. At 30 min and 120 min post-injection, a 10-min static emission scan was acquired with a SuperArgus small-animal PET/CT scanner. The regions of interests (ROIs) were drawn over the tumor and other organs and calculated as %ID/g. The mean uptake and standard deviation were calculated.

[2] = 1-octanol/water partition coefficient (LogP) by gamma counting; assay type: physicochemical; settings: pH 7.4, sample pH around 7.4, n = 3, mean ± SD
Experimental: In order to evaluate the hydrophilicity and lipophilicity of this fluorine-18 labeled agent [^18F]-MerTK-6, we measured the 1-octanol/water partition coefficient (LogP) of [^18F]-MerTK-6. The resulting fractions were counted using a gamma counter. The reaction was repeated three times.
The LogP value of the [^18F]-MerTK-6 was calculated by the gamma particle counts of samples in the aqueous phase or 1-octanol phase by Automatic Gamma Counter 2480-0010 (PerkinElmer Instruments Inc., Waltham, MA, USA).
The [^18F]-MerTK-6 was collected after HPLC purification. After reformulation (pH value around 7.4), 20 µL [^18F]-MerTK-6 sample in saline was added to the mixture of 1 mL Mili-Q® water and 1 mL 1-octanol in a 5 mL Eppendorf tube. The tube was shacked thoroughly and then let stand still for 5 min. Then the 100 µL 1-octanol phase and 100 µL aqueous phase were subjected to a gamma counter separately and the gamma counts were recorded (n = 3). The LogP value was then calculated and expressed as a mean value± standard derivation.

For `CCC[C@H](C)Nc1ncc2c(C3CCN(C(=O)c4cc(C)nc(C)c4)CC3)cn(C3CCC(O)CC3)c2n1` (some centres unmarked) [UNC5293], the “Ambit selectivity score S50” value (kinome) is listed as 0.041 and the Ki (MerTK) is listed as 190 pM.

With `C[C@H](Nc1ncc2c(C3CCN(CC[18F])CC3)cn([C@H]3CC[C@H](O)CC3)c2n1)c1ccccc1` [[^18F]-MerTK-6] the “tumor to muscle ratio” value ([1]; 0.5 h post-injection) was 1.86, the uptake in kidney ([1]; 30 min post-injection) was 10.42 ± 1.01 %ID/g and the uptake in liver ([1]; 30 min post-injection) was 14.79 ± 0.99 %ID/g. For the same compound, the uptake in muscle ([1]; 30 min post-injection) was 2.51 ± 0.48 %ID/g, the uptake in tumor ([1]; 30 min post-injection) was 4.65 ± 1.25 %ID/g and the “tumor to muscle ratio” value ([1]; 2 h post-injection) was 3.09. It also gave an uptake in kidney ([1]; 2 h post-injection) of 5.34 ± 1.25 %ID/g, an uptake in liver ([1]; 2 h post-injection) of 9.72 ± 1.56 %ID/g and an uptake in muscle ([1]; 2 h post-injection) of 1.55 ± 0.23 %ID/g. For the same compound, the uptake in tumor ([1]; 2 h post-injection) was 4.79 ± 0.24 %ID/g, the “tumor uptake (overall, maintained)” value ([1]; overall, 0.5 h to 2 h post-injection) was ~ 5 %ID/g and the logP [2] was 1.56 ± 0.02.
